From PubChem BioAssay (NCI)
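GI50 = concentration required for 50% inhibition of growth. At the TGI there is no net growth.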

Key:
Experiment in all cases: NCI anticancer screen, dose series, 384-well format
NCI/ADR-RES ovarian = test system: NCI/ADR-RES ovarian
SK-OV-3 ovarian = test system: SK-OV-3 ovarian
MOLT-4 leukemia = test system: MOLT-4 leukemia
MDA-MB-231 breast = test system: MDA-MB-231 breast
OVCAR-3 ovarian = test system: OVCAR-3 ovarian
KM12 colon = test system: KM12 colon
HCT-15 colon = test system: HCT-15 colon
MDA-MB-468 breast = test system: MDA-MB-468 breast
786-0 renal = test system: 786-0 renal
EKVX NSCLC = test system: EKVX NSCLC
A549 NSCLC = test system: A549 NSCLC
UO-31 renal = test system: UO-31 renal
DU-145 prostate = test system: DU-145 prostate
RPMI-8226 leukemia = test system: RPMI-8226 leukemia
SF-268 CNS = test system: SF-268 CNS
SK-MEL-5 melanoma = test system: SK-MEL-5 melanoma
T-47D breast = test system: T-47D breast
SW-620 colon = test system: SW-620 colon
RXF 393 renal = test system: RXF 393 renal
PC-3 prostate = test system: PC-3 prostate
NCI-H226 lung = test system: NCI-H226 lung
SF-539 CNS = test system: SF-539 CNS
K-562 leukemia = test system: K-562 leukemia
SF-295 CNS = test system: SF-295 CNS
UACC-62 melanoma = test system: UACC-62 melanoma
NCI-H23 lung = test system: NCI-H23 lung
HL-60(TB) leukemia = test system: HL-60(TB) leukemia
HS 578T breast = test system: HS 578T breast
OVCAR-4 ovarian = test system: OVCAR-4 ovarian
BT-549 breast = test system: BT-549 breast

Work on O=C(O)[C@H](Cc1c[nH]c2ccccc12)N1C(=O)c2ccccc2C1=O yielded a GI50 (NCI/ADR-RES ovarian) greater than 100 µM, a TGI (NCI/ADR-RES ovarian) greater than 100 µM and a GI50 (SK-OV-3 ovarian) greater than 100 µM. The TGI (SK-OV-3 ovarian) was greater than 100 µM, the GI50 (MOLT-4 leukemia) was greater than 100 µM and the TGI (MOLT-4 leukemia) was greater than 100 µM. The GI50 (MDA-MB-231 breast) was greater than 100 µM, the TGI (MDA-MB-231 breast) was greater than 100 µM and the GI50 (OVCAR-3 ovarian) was greater than 100 µM. The TGI (OVCAR-3 ovarian) was greater than 100 µM, the GI50 (KM12 colon) was greater than 100 µM and the TGI (KM12 colon) was greater than 100 µM. It also gave a GI50 (HCT-15 colon) greater than 100 µM, a TGI (HCT-15 colon) greater than 100 µM and a GI50 (MDA-MB-468 breast) greater than 100 µM. For the same molecule, the TGI (MDA-MB-468 breast) was greater than 100 µM, the GI50 ([…]-0 renal) was greater than 100 µM and the TGI (786-0 renal) was greater than 100 µM. For the same molecule, the GI50 (EKVX NSCLC) was greater than 100 µM, the TGI (EKVX NSCLC) was greater than 100 µM and the GI50 (A549 NSCLC) was greater than 100 µM. For the same molecule, the TGI (A549 NSCLC) was greater than 100 µM, the GI50 (UO-31 renal) was greater than 100 µM and the TGI (UO-31 renal) was greater than 100 µM. For the same molecule, the GI50 (DU-145 prostate) was greater than 100 µM, the TGI (DU-145 prostate) was greater than 100 µM and the GI50 (RPMI-8226 leukemia) was greater than 100 µM. For the same molecule, the TGI (RPMI-8226 leukemia) was greater than 100 µM, the GI50 (SF-268 CNS) was greater than 100 µM and the TGI (SF-268 CNS) was greater than 100 µM. The GI50 (SK-MEL-5 melanoma) was greater than 100 µM, the TGI (SK-MEL-5 melanoma) was greater than 100 µM and the GI50 (T-47D breast) was greater than 100 µM. It also gave a TGI (T-47D breast) greater than 100 µM, a GI50 (SW-620 colon) greater than 100 µM and a TGI (SW-620 colon) greater than 100 µM. The GI50 (RXF 393 renal) was greater than 100 µM, the TGI (RXF 393 renal) was greater than 100 µM and the GI50 (PC-3 prostate) was greater than 100 µM. For the same molecule, the TGI (PC-3 prostate) was greater than 100 µM, the GI50 (NCI-H226 lung) was greater than 100 µM and the TGI (NCI-H226 lung) was greater than 100 µM. The GI50 (SF-539 CNS) was greater than 100 µM, the TGI (SF-539 CNS) was greater than 100 µM and the GI50 (K-562 leukemia) was greater than 100 µM. For the same molecule, the TGI (K-562 leukemia) was greater than 100 µM, the GI50 (SF-295 CNS) was greater than 100 µM and the TGI (SF-295 CNS) was greater than 100 µM. For the same molecule, the GI50 (UACC-62 melanoma) was greater than 100 µM, the TGI (UACC-62 melanoma) was greater than 100 µM and the GI50 (NCI-H23 lung) was greater than 100 µM. It also gave a TGI (NCI-H23 lung) greater than 100 µM, a GI50 (HL-60(TB) leukemia) greater than 100 µM and a TGI (HL-60(TB) leukemia) greater than 100 µM. The GI50 (HS 578T breast) was greater than 100 µM, the TGI (HS 578T breast) was greater than 100 µM and the GI50 (OVCAR-4 ovarian) was greater than 100 µM. It also gave a TGI (OVCAR-4 ovarian) greater than 100 µM, a GI50 (BT-549 breast) greater than 100 µM and a TGI (BT-549 breast) greater than 100 µM.
